The source of these data is patent US4109011A, “Insecticide carbamates of N-(polychloroallyl)-amino-phenols” (priority 1975, dated 1978).

Like-named read-outs stand apart in the source and are kept apart here.

Data set [1] relates to Macrosiphum Euphorbiae. The data set can be described thus: Biological activity on Macrosiphum euphorbiae (aphides), potato seedlings sprayed with aqueous dispersion. Type of data set: in vivo. Here is the method:
Biological Activity on Macrosiphum Euphorbiae (Aphides)
Potato seedlings, cultivated in pots, were infested with adult aphide females and, after a few hours, were sprayed with an aqueous dispersion of the compounds listed in Table 6. The mortality percentage was determined 24 hours after the treatment (on control non-treated seedlings, the mortality percentage was 0).
(§1) To show the variation in activity from one compound to another, depending on the species used, the activities of compounds according to this invention were investigated at different concentrations, expressed as percent of active principle, on various infesting species. The mortality percentage was computed in the same way as in the preceding examples.

Data set [2] has as its system Culex Pipiens. The experiment in a line: Biological activity on Culex pipiens (mosquito larvae in aqueous dispersion). Type of data set: in vivo.
Description: Biological Activity on Culex Pipiens (Diptera)
Mosquito larvae of the third and fourth ages were introduced into glass pots containing an aqueous dispersion of the compounds shown at 2 ppm and 0.2 ppm.
as §1

Data set [3] has as its system Leptinotarsa Decimlineata. The experiment in a line: Biological activity on Leptinotarsa decemlineata larvae, sprayed potato seedlings. Type of data set: in vivo.
Description: Biological Activity on Leptinotarsa Decimlineata Coleoptera
Potato seedlings cultivated in pots were infested with 4-day old larvae and sprayed with an aqueous dispersion of the compounds according to this invention and Aminocarb as a comparison at doses of […]; respectively. The mortality percentage of the control, untreated seedlings, was zero.
as §1

Data set [4] concerns Pieris Brassicae. The data set can be described thus: Biological activity on Pieris brassicae larvae, sprayed cut cauliflower leaves. As to conditions: for mortality at 0.1 %: 0.1 percent, larvae, read-out: Percent of Mortality. Type of data set: in vivo.
Description: Biological Activity on Pieris Brassicae (Lepidoptera)
Cut leaves of cauliflower were sprayed with an aqueous dispersion of compound according to this invention at a 0.1% concentration. After drying, they were infested with 5-day old larvae. The mortality percentage of the control, untreated leaves, was zero.
as §1

Data set [5] deals with Meloidogyne Incognita. The data set can be described thus: Biological activity on Meloidogyne incognita (nematocide activity, galls on tomato seedlings). Type of data set: in vivo. As to conditions: vs control. The procedure:
Biological Activity on Meloidogyne Incognita (Nematoda)
A 1:1 mixture of field earth and sand infested by new-born larvae and eggs of the nematode was treated by uniformly mixing with a hydroacetone dispersion (20% by vol. of acetone) at a concentration of 0.1% and of 0.02% of the compounds under test so as to get soil samples containing 100 ppm and 20 ppm, respectively, of active principle. The soil was introduced into plastic pots and after 5 days, 5 tomato seedlings about 15 cm high were transplanted into each of them. Fourteen days after transplantation, the roots of the seedlings extracted from the soil were examined in order to determine the degree of infestation by counting the galls which had formed.
The nematocide activity is expressed in Table 13 as the percentage of infestation reduction with respect to the control (seedlings transplanted into the same soil treated with a dispersion free from active principle).

In data set [6] the test system is Leptinotarsa Decimlineata. The data set can be described thus: Biological activity on Leptinotarsa decemlineata larvae, sprayed potato seedlings. As to conditions: read-out: Percent of Mortality. Type of data set: in vivo.
The nature of data set [7]: Acute toxicity on white rats, administered orally. As to conditions: rat, in vivo, po.
Data set [8] concerns parasites. As to conditions: vs N-dimethyl substituted homolog; Miskus et al 1968; cited from earlier work.
In data set [9] the test system is Musca Domestica. The data set can be described thus: Biological activity on Musca domestica, topical application to adults. Type of data set: in vivo. As to conditions: read-out: Percent of Mortality. Here is the method:
Biological Activity on Musca Domestica (Diptera)
Four day old adults were treated by topical application through a microsyringe with 1 mm^3 of an acetonic solution of the compounds shown in such concentrations that they received doses of 5γ/insect; 2γ/insect; 0.5γ/insect of active principle. The mortality percentage 24 hours after the treatment is reported in Table 8 (mortality of insects treated with 1 mm^3 of acetone = 0).

Data set [10] concerns Tetranychus Urticae. The experiment in a line: Biological activity on Tetranychus urticae eggs, bean leaf discs. Type of data set: in vivo.
Description: Biological Activity on Tetranychus Urticae (Acari)
Small discs of bean leaves were infested with acarus eggs and successively treated by spraying with an aqueous dispersion of a compound of this invention and Aminocarb as a comparison, at concentrations of 0.1 and 0.01%. The mortality percentage of the control, untreated discs, was zero.
as §1

Data set [11] deals with Tetran Urt. adults. The experiment in a line: Activity on Tetranychus urticae adults (Table 14). Type of data set: in vivo. As to conditions: 1% a.p., read-out: % mort. Tetran. Urt. adults.
Description: as §1

Data set [12] has as its system Culex Pipiens. The data set can be described thus: Biological activity on Culex pipiens (mosquito larvae in aqueous dispersion). Type of data set: in vivo. As to conditions: read-out: % mort. Culex Pipiens.
The mark [13] stands for this setting: 24 h, read-out: Mortality Percent.
The mark [14] stands for this setting: 24 h, read-out: Percent of Mortality.
The mark [15] stands for this setting: read-out: % mort. Macrosiphum Euphorbiae.
[16] abbreviates: read-out: % mort. Culex Pipiens.
The mark [17] stands for this setting: read-out: % mort. Leptinot. Decemlin.

One may read the LD50 as the dose expected to kill half of the subjects tested. Read a low LD50 as greater toxicity. In the case of `CNC(=O)Oc1cccc(NCC=C(Cl)Cl)c1` [M 6370], the mortality at 0.01 % in data set [1] (setting [13]) and in [6] was 100% throughout. For the same compound, the mortality at 0.2 ppm in [2] (setting [14]) was found to be 17%. Also, the mortality at 2 ppm in [2] (setting [14]) came out at 94%. Also, the mortality at 0.1 % in [3] (read-out: Percent of Mortality) is 100%; in data set [4] it was 90%. Besides, the “Reduction of Infestation” value in data set [5] (20 ppm in soil) and in [5] (100 ppm in soil) was 100% in each case. Besides, the LD50 in data set [7] is 100 mg/kg.
With `CNC(=O)Oc1cc(C)c(NC)c(C)c1`, the relative insecticidal activity entry in [8] was “only a bit less active than the N-dimethyl substituted homolog”.
For `CNC(=O)Oc1ccc(C)c(NCC=C(Cl)Cl)c1` [M 6430, N-methylcarbamate of 4-methyl-3-(3,3-dichloroallylamino)-phenol], the mortality at 0.01 % in data set [1] (setting [13]) was found to be 84%. Besides, in data set [2] (setting [14]), the mortality at 0.2 ppm amounted to 80% and the mortality at 2 ppm amounted to 100%. Besides, in [9] (24 h), the mortality at 0.5 µg/insect is 100%, the mortality at 2 µg/insect is 100% and the mortality at 5 µg/insect was found to be 100%. In data set [3] (read-out: Percent of Mortality), the mortality at 0.1 % stood at 100%. Further, the mortality at 0.1 % in data set [4] is 100%. In data set [5] (20 ppm in soil), the “Reduction of Infestation” value was determined as 88%. The “Reduction of Infestation” value in data set [5] (100 ppm in soil) was 100%. For the same compound, the mortality at 0.01 % in [6] was determined as 100%. Further, the LD50 in [7] was determined as 100 mg/kg.
On to `CNC(=O)Oc1ccc(N(C)C)c(C)c1` [Aminocarb, reference compound], for which the mortality at 0.01 % in data set [1] (0.01 percent dispersion, 24 hours, read-out: Mortality Percent) was 46%; in [10] (foliar, 0.01%, eggs, read-out: Percent of Mortality) it was 0%; in [6] (0.01% concentr., larvae), 45%. In addition, the mortality at 0.2 ppm in data set [2] (0.2 ppm, 24 hours, read-out: Percent of Mortality) was 0%. The mortality at 2 ppm in data set [2] (2 ppm, 24 hours, read-out: Percent of Mortality) stood at 25%. In addition, in [9] (0.5 γ per insect, 24 hours), the mortality at 0.5 µg/insect was 0%. In addition, in [9] (2 γ per insect, 24 hours), the mortality at 2 µg/insect is 50%. Also, the mortality at 5 µg/insect in [9] (5 γ per insect, 24 hours) came to 85%. Besides, the mortality at 0.1 % in data set [3] (0.1% concentr., larvae, read-out: Percent of Mortality) amounted to 100%; in [10] (foliar, 0.1%, eggs, read-out: Percent of Mortality), 40%. The figures for the “Reduction of Infestation” value in data set [5] (20 ppm in soil) and in [5] (100 ppm in soil) were 0% and 95%, respectively. Besides, the LD50 in [7] is 30 mg/kg.
Turning to `CNC(=O)Oc1cccc(NCC=C(Cl)Cl)c1` [M 7360], the mortality at 0.01 % stood at 42% in data set [1] (setting [15]) and 0% in data set [3] (setting [17]). In addition, the mortality at 0.1 % came to 95% in [1] (setting [15]) and 100% in [3] (setting [17]). Further, the mortality at 1 % in data set [1] (setting [15]) amounted to 100%; in data set [3] (setting [17]), 100%; in data set [4] (Table 14, 1% a.p., read-out: % mort. Pieris Brassicae), 45%; in data set [10] (topical, read-out: % mort. Tetran. Urt. eggs), 6%; in data set [11], 23%. Moreover, in data set [2] (setting [16]), the mortality at 0.2 ppm amounted to 37%. The mortality at 2 ppm in data set [2] (setting [16]) was determined as 100%. Further, in data set [12], the mortality at 0.02 ppm turned out to be 0%.
In the case of `CNC(=O)Oc1ccc(C)c(NCC(Cl)=C(Cl)Cl)c1` [M 6738], the mortality at 2 ppm in data set [2] (setting [14]) was determined as 100%. Besides, in data set [9] (24 h), the mortality at 2 µg/insect came out at 100% and the mortality at 5 µg/insect worked out at 100%. In addition, the mortality at 0.1 % in data set [3] (read-out: Percent of Mortality) was determined as 100%. Also, in data set [6], the mortality at 0.01 % turned out to be 100%. Besides, in data set [7], the LD50 was determined as 100 mg/kg.
